Results taken from patent publication US10532066B2, “Surfactant lipids, compositions thereof, and uses thereof” (National Jewish Health, priority 2007, dated 2020).

Legend:
PstB2 = target: T1, PstB2 (Saccharomyces cerevisiae, UniProt P53844); test: PstB2 control protein binding to solid phase POPG; design: species or system yeast; settings: PstB2 1 μg/ml
T1 construct: made in house; host or cells: baculovirus-insect cell expression system
Text: FIG. 16. MD-2 preferentially binds POPG.

TLR2 = target: T2, TLR2 (Mus musculus, UniProt Q9QUN7); test: TLR agonist TNFα production in RAW 264.7 cells, TLR2; type: cell-based; settings: Mycoplasma pneumoniae membranes, 24 h
T2 construct: endogenous in cells; host or cells: RAW 264.7
T2 sequence (Q9QUN7 25-784): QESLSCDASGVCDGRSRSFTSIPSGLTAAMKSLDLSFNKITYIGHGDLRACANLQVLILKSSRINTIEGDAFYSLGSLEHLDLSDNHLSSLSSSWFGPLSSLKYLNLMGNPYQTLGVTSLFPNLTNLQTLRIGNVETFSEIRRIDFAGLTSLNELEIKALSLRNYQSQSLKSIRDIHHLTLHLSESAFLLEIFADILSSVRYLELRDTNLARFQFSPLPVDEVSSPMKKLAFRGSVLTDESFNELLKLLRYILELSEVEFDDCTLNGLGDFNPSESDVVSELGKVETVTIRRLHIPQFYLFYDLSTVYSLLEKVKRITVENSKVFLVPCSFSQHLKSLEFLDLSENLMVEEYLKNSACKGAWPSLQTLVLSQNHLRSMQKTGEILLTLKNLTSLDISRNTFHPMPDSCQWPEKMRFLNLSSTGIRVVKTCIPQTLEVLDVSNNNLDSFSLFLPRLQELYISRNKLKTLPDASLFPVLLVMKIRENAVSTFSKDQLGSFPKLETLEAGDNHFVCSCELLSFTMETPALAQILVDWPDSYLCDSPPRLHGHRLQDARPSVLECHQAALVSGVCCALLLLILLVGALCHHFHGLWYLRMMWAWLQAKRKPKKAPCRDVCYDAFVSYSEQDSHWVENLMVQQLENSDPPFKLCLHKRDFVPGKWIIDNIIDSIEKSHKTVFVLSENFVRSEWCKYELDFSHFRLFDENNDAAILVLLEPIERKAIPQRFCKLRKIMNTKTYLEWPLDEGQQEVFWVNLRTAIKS
Method: (§1) In this experiment, multiple TLRs were stimulated with defined TLR agonists for 24 h and the TNFα production was measured. In each case, the maximal stimulation by agonist is set at 100% and the antagonism by POPG is expressed as the relative % response. The Controls consist of no treatment, or treatment with POPG in the absence of agonist as indicated. The agonists for the TLRs consist of Pam3Cys for TLR1/2, Mycoplasma pneumoniae membranes as an agonist for TLR2, mycoplasma derived MALP2 as an agonist for TLR 2/6, double stranded RNA (poly IC) for TLR3, Gram-negative lipopolysaccharide for TLR4, and CpG rich DNA as an agonist for TLR9. The TLR4 panel also contains the antagonist polymyxin B (PB) for comparison with POPG.

TLR4 = test: TLR agonist TNFα production in RAW 264.7 cells, TLR4; type: cell-based; settings: lipopolysaccharide, 24 h
Method: as §1

TLR7 = test: TLR agonist IL-8 production in primary human neutrophils, TLR7; type: cell-based; settings: polyU, 5-24 h
Method: In this experiment, multiple TLRs were stimulated with defined TLR agonists for 5-24 h as indicated, and the IL-8 production was measured. In each case the maximal stimulation by agonist is set at 100% and the antagonism by POPG is expressed as the relative % response. The Controls consist of no treatment, or treatment with POPG, in the absence of agonist as indicated. The agonists for the TLRs consist of Pam3Cys for TLR1/2, double stranded RNA (poly IC) for TLR3, Gram-negative lipopolysaccharide (LPS) for TLR4, and single stranded RNA (polyU) for TLR7/8.

[1] = system: Respiratory Syncytial Virus (RSV); test: RSV-induced cytokine production in NHBE cells; type: cell-based
[2] = system: Respiratory Syncytial Virus (RSV); test: Cytopathic effects of RSV upon NHBE cells (photomicrography); type: cell-based
Method: Monolayers of NHBE cells were infected with RSV at a multiplicity of 3 for 72 h. Infections were performed on cells in either the absence or the presence of POPG (200 ug/ml). The cell monolayers were photographed at a magnification of 200×. Controls consisted of no viral challenge in either the presence or absence of POPG as indicated.
Monolayers of NHBE cells were infected with RSV at a multiplicity of 3 for 72 h. Infections were performed on cells in either the absence (b) or the presence (c,f) of POPG (200 ug/ml) and POPC (200 ug/ml) as indicated. Cells were photographed at a magnification of 200×. Controls (a,d,e) consisted of cell layers either not exposed to virus or exposed to POPG, and POPC in the absence of virus as indicated.
Monolayers of normal human bronchial epithelial cells were infected with RSV at a multiplicity of 0.5-1, in either the presence or absence of 200 ug/ml POPG, or 200 ug/ml POPC, as indicated.

[3] = system: Respiratory Syncytial Virus (RSV); test: RSV replication in NHBE cells (anti-RSV antibody staining); type: cell-based; settings: multiplicity 3, 72 h, POPG 200 ug/ml
Method: Monolayers of BEAS2B and NHBE cells were infected with RSV at a multiplicity of 3 for 72 h. Infections were performed on cells in either the absence or the presence of POPG (200 ug/ml). The cell monolayers were fixed and stained with goat anti-human RSV antibody conjugated with horseradish peroxidase. The presence of the antibody was detected with diaminobenzamidine. Controls consisted of cell layers not exposed to the virus or exposed to POPG in the absence of virus as indicated.

RSV = RSV infection of mice; type: in vivo; settings: 10^7 RSV with 200 ug/ml POPG, three days
Method: Groups of 8 mice were inoculated with 10^7 RSV in either the absence (RSV), or presence of 200 ug/ml POPG (RSV+POPG). Control experiments consisted of UV inactivated RSV (URV), or saline treatment (CON), or POPG treatment without virus (POPG). Three days after the inoculations, the animals were killed and the lungs harvested and processed for viral content by quantitative plaque assay (left panel of FIG. 41), and histopathology (right panel of FIG. 41)

influenza-A virus H3N2 = type: cell-based; settings: BEAS2B, multiplicities 1-10, 24, 48 and 72 h, 200 ug/ml POPG added 30 minutes prior
[4] = RSV multiplicity 3, 48 h, lipid 200 ug/ml

T1 sequence (P53844 whole entry): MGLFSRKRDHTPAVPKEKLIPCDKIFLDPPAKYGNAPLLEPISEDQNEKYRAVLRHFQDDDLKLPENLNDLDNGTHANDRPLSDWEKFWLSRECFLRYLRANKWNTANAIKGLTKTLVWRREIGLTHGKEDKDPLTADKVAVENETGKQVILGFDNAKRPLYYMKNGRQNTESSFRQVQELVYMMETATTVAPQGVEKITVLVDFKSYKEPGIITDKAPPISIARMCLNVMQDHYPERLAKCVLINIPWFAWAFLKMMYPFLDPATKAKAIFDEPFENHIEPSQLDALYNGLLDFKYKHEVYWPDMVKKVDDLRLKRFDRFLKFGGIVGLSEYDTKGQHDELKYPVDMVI

Compound: CCCCCCCC/C=C\CCCCCCCC(=O)O[C@H](COC(=O)CCCCCCCCCCCCCCC)COP(=O)(O)OCC(O)CO (stereo partly drawn) [POPG, palmitoyl-oleoyl-phosphatidylglycerol]
- binding to PstB2 (PstB2): not
- activity of TLR2 (TNFα production) (TLR2): inhibits
- activity of TLR4 (TNFα production) (TLR4): inhibits
- activity of TLR7 (IL-8 production) (TLR7): inhibits
- inflammatory cytokine production (IL-6, IL-8) ([1]; RSV multiplicity 0.5-1, 48 h, 200 ug/ml): suppresses
- IL-6 production [1, 4]: inhibits
- IL-8 production [1, 4]: inhibits
- killing of cells by RSV ([2]; multiplicity 0.5-1, 72 h, 200 ug/ml): prevents the killing
- cytopathic effects of RSV ([2]; multiplicity 3, 72 h, lipid 200 ug/ml): prevents the cytopathic effects
- viral replication [3]: prevents viral replication
- RSV infection in vivo (lung viral content, histopathology) (RSV): suppresses
- influenza-A induced IL-8 production (influenza-A virus H3N2): suppresses
